Data published in PMC4608580, “Synthesis and Evaluation of Biological Activity of Antimicrobial – Pro-Proliferative Peptide Conjugates” (PLoS ONE, 2015).
Read-outs that look alike come from different tables or passages of the source. No end group written: not given here.

Key:
[1] = test system: immortalized human HaCaT keratinocytes; assay: Cell proliferation assay (MTT); type: cell-based; conditions: 72 h, serum-free DMEM; for Effect on HaCaT cell viability/proliferation (MTT), in words: whole range 1–50 μg/mL, vs. control without peptide, triplicate; for Effect on HaCaT proliferation (MTT), in words: lower concentrations, 1 or 10 μg/mL
Experimental: (§1) In our study two kind of cells were used: immortalized human HaCaT keratinocytes (DKFZ Heidelberg, Germany) and primary dermal fibroblasts obtained from 3 healthy donors. Both types of the used cell lines were grown in Dulbecco's modified Eagle's medium (DMEM) (Sigma–Aldrich, Germany), that contained […] of glucose, […] of L-glutamine, sodium pyruvate and sodium bicarbonate. Additionally, medium was supplemented with 10% of FCS (fetal calf serum, Sigma-Aldrich, Germany), 100 U/mL of penicillin and 100 μg/mL streptomycin (Sigma-Aldrich, Germany). The cells were grown in culture dishes (BD, USA) under standard conditions in a humidified atmosphere with 5% CO2 at 37°C and medium was changed every 2 days.
(§2) The fibroblasts and keratinocytes were seeded at density of 4500 and 6000 cells per well, respectively, into 96-well plates suspended in a medium supplemented with 10% of FCS. After 24 h the media were exchanged with serum- and antibiotic- free DMEM and tested peptides dissolved in PBS were added yielding final concentration ranging from 1 to 50 μg/mL. Cells were incubated for the next 24 hours, when the medium was exchanged again and fresh portion of peptides (used at the same concentrations as previously) was added. Incubation was continued for the next 48 hours (the overall time of cell exposition to peptide was 72 h). At the end of the experiment cells were treated with 20 μL of MTT (5 mg/mL in PBS). After 3 h at 37°C under 5% CO2 medium was discarded and replaced by 6mM HCl in isopropanol. After 15 min when the purple crystals of formazan were fully solubilized, absorbance was read at 570 nm with a plate reader. The optical density reflects the level of cell viability as MTT is converted in purple formazan product only in the presence of viable mitochondria of the living cells.
Fig 1 Pro-proliferative activity of the tested peptides towards human keratinocytes (A) and fibroblasts (B). Cells were incubated for 72 hours in serum-free DMEM medium in the presence of peptides applied at concentrations of 1,10, 25 and 50 μg/mL, respectively. The data represents results of MTT assay expressed as the percentage of the cell viability in comparison to their control sample (cells incubated in serum-free DMEM without tested peptides), additional positive control corresponds to the cells incubated in the presence of 10% FCS. All experiments were performed independently in triplicate. *P < 0.05, **P < 0.01, ***P < 0.001 vs. control.
In order to evaluate a long-term effect of peptides, experiments were carried out for 72 hours. Before addition of the tested compounds, the cell medium was exchanged for the fresh one not containing any serum or antibiotic.

[2] = test system: human primary dermal fibroblasts; assay: Cell proliferation assay (MTT); type: cell-based; conditions: 72 h, serum-free DMEM, peptide at 1–25 μg/mL
Experimental: Biopsies of healthy human skin were obtained aseptically from three donors (47–69 years old) undergoing circumcision after obtaining their written informed consent. All the procedures were approved by the Ethics Committee of Medical University of Gdansk (NKEBN/483/2011. Issued: 2011-12-19). The samples were washed several times with sterile PBS (Sigma-Aldrich, Germany) containing antibiotic (200 U/mL penicillin and 200 μg/mL streptomycin), after which, the subcutaneous tissue was cut off with a sharp blade. The resulting sheets were cut into small fragments, washed two times with sterile PBS and treated with 6 U/mL dispase II (BD, USA) overnight at 4°C to separate epidermis and dermis. The dermis was then digested with 1.0 mg/mL collagenase type I (from Clostridium histolyticum Sigma-Aldrich, Germany) for 2 hours at 37°C to isolate fibroblasts. Cells were used between the 2nd and 4th passage in all experiments.
as §1
as §2, with “At the end of the experiment cells were treated with 20 μL of MTT (5 mg/mL in PBS). After 3 h at 37°C under 5% CO2 medium was discarded and replaced by 6mM HCl in isopropanol.” left out, “The optical density reflects the level of cell viability as MTT is converted in purple formazan product only in the presence of viable mitochondria of the living cells.” left out
Fig 1 Pro-proliferative activity of the tested peptides towards human keratinocytes (A) and fibroblasts (B). […] The data represents results of MTT assay expressed as the percentage of the cell viability in comparison to their control sample (cells incubated in serum-free DMEM without tested peptides), additional positive control corresponds to the cells incubated in the presence of 10% FCS. […]

[3] = test system: Staphylococcus epidermidis (PCM 2118); type: cell-based
From the text: (§3) Escherichia coli (PCM 2057), Staphylococcus aureus (PCM 2054), Staphylococcus epidermidis (PCM 2118), Pseudomonas aeruginosa (PCM 499) were obtained from Polish Collection of Microorganisms. Fungi strains Candida albicans (CCM 8186), Candida glabrata (CCM 8270), Candida parapsilosis (CCM 8260), Candida krusei (CCM 8271), Candida tropicalis (CCM 8264) were acquired from Czech Collection of Microorganisms.
(§4) Luria-Bertani broth (LB) and Sabouraud Dextrose broth (SB) (Biocorp, Poland) were used for cultivation of bacteria and fungi strains, respectively. Antimicrobial activity of peptides was analyzed through determination of MIC (minimal inhibitory concentration) parameter according to the standard microdilution technique performed on 96-well plates. Mueller-Hinton broth (MHB) was used as the working medium for all bacterial strains, while in case of fungi it was additionally supplemented with 2% glucose.
(§5) Briefly, inoculum was prepared from freshly grown cultures of microorganisms being at their exponential phase of growth. Each well of 96-well plates containing 100 μL of serially diluted peptides in PBS (phosphate buffer saline) at concentration ranging from 2 to 250 μg/mL were inoculated with 100 μL of approximately 10^5 CFU/mL of bacterial suspension or about 2.5 x 10^3 CFU/mL of fungi suspended in a double concentrated Mueller-Hinton broth (supplemented with 2% glucose for Candida spps.). Then plates were incubated overnight at 37°C and absorbance was read at 590 nm after 24 h. Cultures without peptide were treated as positive control, while uninoculated Mueller-Hinton broth was defined as negative control. All measurements were run at least in triplicate.
(§6) All peptides were screened against the wide range of microorganisms, including Gram-negative, Gram-positive bacteria and fungi from Candida species (Table 2). Broth microdilution method for MIC determination was used as a standard procedure. All assays were performed on liquid Mueller-Hinton broth, which was additionally supplemented with 2% glucose when fungicidal activity towards Candida spps. was analyzed.

[4] = test system: Staphylococcus aureus (PCM 2054); type: cell-based
From the text: as §3, §4, §5, §6

[5] = test system: Escherichia coli (PCM 2057); type: cell-based
From the text: as §3, §4, §5, §6

[6] = test system: Candida parapsilosis (CCM 8260); type: cell-based; conditions: broth microdilution, Mueller-Hinton broth + 2% glucose, about 2.5 x 10^3 CFU/mL, 37°C, 24 h, absorbance 590 nm, at least triplicate
From the text: as §3, §4, §5, §6

[7] = test system: Candida krusei (CCM 8271); type: cell-based; conditions: broth microdilution, Mueller-Hinton broth + 2% glucose, about 2.5 x 10^3 CFU/mL, 37°C, 24 h, absorbance 590 nm, at least triplicate
From the text: as §3, §4, §5, §6

[8] = test system: Candida tropicalis (CCM 8264); type: cell-based; conditions: broth microdilution, Mueller-Hinton broth + 2% glucose, about 2.5 x 10^3 CFU/mL, 37°C, 24 h, absorbance 590 nm, at least triplicate
From the text: as §3, §4, §5, §6

[9] = test system: Pseudomonas aeruginosa (PCM 499); type: cell-based
From the text: as §3, §4, §5, §6

[10] = test system: Candida glabrata (CCM 8270); type: cell-based; conditions: broth microdilution, Mueller-Hinton broth + 2% glucose, about 2.5 x 10^3 CFU/mL, 37°C, 24 h, absorbance 590 nm, at least triplicate
From the text: as §3, §4, §5, §6

[11] = test system: Candida albicans (CCM 8186); type: cell-based; conditions: broth microdilution, Mueller-Hinton broth + 2% glucose, about 2.5 x 10^3 CFU/mL, 37°C, 24 h, absorbance 590 nm, peptide 2 to 250 μg/mL, at least triplicate
From the text: as §3, §4, §5, §6

B. cereus = type: cell-based; conditions: 24 h
Experimental: as §4, §5, §6

B. subtilis = type: cell-based; conditions: 24 h
Experimental: as §4, §5, §6

[12] = Circular dichroism, alpha-helical content; type: physicochemical; conditions: CD, mean residue ellipticity at 222 nm (Eq 1), peptide 0.4 mg/ml in 30 mM SDS, room temperature
Experimental: Circullar dichroism spectra of analyzed compounds were recorded on a Jasco J-815 spectropolarimeter using a quartz cell of 1 mm path length between 195–260 nm at room temperature. Peptides at concentration of 0.4 mg/ml were dissolved in water or 30 mM SDS solution. SDS micelle system was used as the simplified model of negatively charged lipid membrane. On the basis of the obtained results the alpha-helical content was determined from the mean residue ellipticities at 222 nm according to Eq 1: %Helix=([θ]obs/([θ]helixx(1−2.57/l))x100, (1) where [θ] obs is the experimentally observed mean-residue ellipticity at 222 nm, [θ]helix is the theoretical ellipticity of peptide of infinite length with a 100% helix population, taken as -39 500 deg·cm^2/dmol, and l is the number of peptide bonds.
Circular dichroism method was applied to obtain a basic information about the secondary structure of the synthesized compounds (with the exception of CAR, CAR3, DAL, CTEN2) in two chemical environments, water and 30 mM SDS. As expected, all the tested compounds in water adopted a random-coil structure, while in the presence of 30 mM SDS most of them formed α-helices with characteristic negative minima around 208 and 220 nm. […] The examples of CD spectra for selected peptides could be seen in supporting information (Figure A in S1 File). On the basis of the experimentally obtained values of the mean residue ellipticities of peptides at 222 nm their alpha-helical content was calculated according to the Eq 1 (Table 1).

[13] = broth microdilution, Mueller-Hinton broth, approximately 10^5 CFU/mL, 37°C, 24 h, absorbance 590 nm, at least triplicate
[14] = broth microdilution, Mueller-Hinton broth, approximately 10^5 CFU/mL, 37°C, absorbance 590 nm, at least triplicate

Substance	Effect on HaCaT cell viability/proliferation (MTT), in words [1]	MIC S. epidermidis [3, 13] [µg/mL]	MIC S.aureus [4, 13] [µg/mL]	MIC E.coli [5, 13] [µg/mL]	MIC C. parapsilosis [6] [µg/mL]	MIC C.krusei [7] [µg/mL]	MIC C.tropicalis [8] [µg/mL]	MIC P. aeruginosa [9, 13] [µg/mL]	MIC C.glabrata [10] [µg/mL]	MIC C. albicans [11] [µg/mL]	MIC B. cereus (B. cereus; [14]) [µg/mL]	MIC B. subtilis (B. subtilis; [14]) [µg/mL]	α-helicity [12] [%]	also measured
EGLEPG [CTEN2]	non-toxic	–	–	–	–	–	–	–	–	–	–	–	–	Effect on fibroblast cell count (MTT), in words [2]: Increased cell count
IKKILSKIKKLL-PEG-YAGFLR [DK5-PEG-DAL, conjugate of DK5 and dalargin joined by PEG-linker (8-amino-3,6-dioxaoctanoic acid)]	negative dose-response relationship	7.8	>125	7.8	2.0	7.8	7.8	>125	>125	100	>125	7.8	20	–
EGLEPG-PEG-IKKILSKIKKLLK-NH2 [CTEN2-PEG-LK6, conjugate of CTEN2 and LK6 joined by PEG-linker]	–	7.8	>125	>125	125	15.6	7.8	>125	>125	125	>125	7.8	20	–
YAGFLR [DAL, dalargin, synthetic Leu-enkephalin analogue, reference compound]	non-toxic	–	–	–	–	–	–	–	–	–	–	–	–	–
ΒAHβAHβAH-PEG-IKKILSKIKKLL-NH2 [CAR3-PEG-DK5, conjugate of CAR3 and DK5 joined by PEG-linker]	–	7.8	>125	>125	2.0	7.8	7.8	50	125	100	>125	15.6	27	Effect on HaCaT proliferation (MTT), in words [1]: induced cell proliferation
KKVVFWVKFK-NH2 [KSLW, reference compound]	–	–	–	–	–	–	–	–	–	–	–	–	–	MIC S. epidermidis ([3]; PCM 2118, 24 h): 7.8 µg/mL; MIC S.aureus ([4]; PCM 2054, 24 h): 25 µg/mL; MIC E.coli ([5]; PCM 2057, 24 h): 7.8 µg/mL; MIC P. aeruginosa ([9]; PCM 499, 24 h): 25 µg/mL; MIC B. cereus (B. cereus): 50 µg/mL; MIC B. subtilis (B. subtilis): 7.8 µg/mL
βAH-PEG-IKKILSKIKKLL-NH2 [CAR-PEG-DK5, conjugate of carnosine and DK5 joined by PEG-linker]	–	3.9	125	100	31.3	3.9	<2	50	62.5	15.6	100	3.9	41	Effect on HaCaT proliferation (MTT), in words [1]: induced cell proliferation
IKKILSKIKKLLK-NH2 [LK6, reference compound]	–	–	–	–	–	–	–	–	–	–	–	–	–	MIC S. epidermidis ([3]; PCM 2118, 24 h): 7.8 µg/mL; MIC S.aureus ([4]; PCM 2054, 24 h): 100 µg/mL; MIC E.coli ([5]; PCM 2057, 24 h): >125 µg/mL; MIC P. aeruginosa ([9]; PCM 499, 24 h): 25 µg/mL; MIC B. cereus (B. cereus): 50 µg/mL; MIC B. subtilis (B. subtilis): 7.8 µg/mL
